Assay [1] has as its target S-adenosylmethionine synthase isoform type-2 (Rattus norvegicus) (UniProt P18298). The assay is described as follows: Inhibition constants against ATP substrate site of M-2 (kidney form) variant of rat Methionine adenosyltransferase.
The nature of assay [2]: Ratio of inhibitor constant for ATP substrate site of methionine adenosyl transferase and ATP substrate site of M-T variant methionine adenosyl transferase.
For assay [3], the target named is S-adenosylmethionine synthase isoform type-2 (Rattus norvegicus) (UniProt P18298). Briefly: Inhibition constants against ATP substrate site of M-T (Novikoff Ascitic Hepatoma form) variant of rat Methionine adenosyltransferase.
A short description of assay [4]: Ratio of inhibitor constant for ATP substrate site of methionine adenosyl transferase and ATP substrate site of M-2 variant methionine adenosyl transferase.
In assay [5] the target is S-adenosylmethionine synthase isoform type-2 (Rattus norvegicus) (UniProt P18298). The assay is described as follows: Inhibition constants against Met (L-methionine)P substrate site of M-T (Novikoff Ascitic Hepatoma form) variant of rat Methionine adenosyltransferase.
For assay [6] the target is unchanged. Briefly: Inhibition constants with Met (L-methionine) substrate site of M-2 (kidney form) variant of rat Methionine adenosyltransferase.
The nature of assay [7]: Ratio of inhibitor constant for Met substrate site of methionine adenosyl transferase and ATP substrate site of M-T variant methionine adenosyl transferase.
The nature of assay [8]: Ratio of inhibitor constant for Met substrate site of methionine adenosyl transferase and ATP substrate site of M-2 variant methionine adenosyl transferase.

S-adenosylmethionine synthase isoform type-2 (Rattus norvegicus), sequence (P18298 whole entry, looked up, stated change not applied, canonical isoform): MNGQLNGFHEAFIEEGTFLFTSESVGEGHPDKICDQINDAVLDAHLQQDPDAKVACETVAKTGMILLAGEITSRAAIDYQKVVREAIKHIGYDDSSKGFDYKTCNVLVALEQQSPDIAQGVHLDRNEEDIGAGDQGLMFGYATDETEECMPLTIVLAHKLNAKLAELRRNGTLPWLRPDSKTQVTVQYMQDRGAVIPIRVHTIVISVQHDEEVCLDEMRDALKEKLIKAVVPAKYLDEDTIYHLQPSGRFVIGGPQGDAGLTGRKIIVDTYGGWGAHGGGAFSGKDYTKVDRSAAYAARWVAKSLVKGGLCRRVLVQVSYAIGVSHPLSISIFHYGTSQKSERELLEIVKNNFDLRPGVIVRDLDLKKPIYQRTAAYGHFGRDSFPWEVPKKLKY

What is called Ki is a measure of affinity in units of concentration, obtained from inhibition or displacement. As to `CCCCSc1ncnc2c1ncn2[C@@H]1O[C@H](COP(=O)(O)OP(=O)(O)OP(=O)(O)O)[C@@H](O)[C@H]1O`, the results for the Ki in assay [1] and in assay [3] were 310000 nM and 100000 nM, respectively. For the same molecule, the Ratio in assay [2] was 1.4; in assay [4], 0.45.

For `Nc1ncnc2c1ncn2[C@@H]1O[C@H]([C@H](CSCCC(N)C(=O)O)OP(=O)(O)OP(=O)(O)NP(=O)(O)O)[C@@H](O)[C@H]1O` (stereo not given in full), the Ki in assay [5] was 670 nM; in assay [6], 650 nM; in assay [1], 130 nM; in assay [3] it was 210 nM. Also, the Ratio in assay [2] was 670; in assay [7] it was 22; in assay [8], 7.7; in assay [4], 1080.

`CCCCSc1ncnc2c1ncn2[C@@H]1O[C@H]([C@H](CSCC[C@H](N)C(=O)O)OP(=O)(O)OP(=O)(O)NP(=O)(O)O)[C@@H](O)[C@H]1O`: the Ki in assay [5] came to 740 nM; in assay [6] it was 2900 nM; in assay [1], 120 nM; in assay [3], 110 nM. For the same molecule, the Ratio was 1270 in assay [2], 22 in assay [7], 1.7 in assay [8] and 1170 in assay [4].
